# Values of other authors in US8765195B2, “Methods and compositions for increasing sex steroids and growth hormones” (Quality IP Holdings, Inc., priority 2012, dated 2014).
# Key:
# [1] = test system: hGH; conditions: for effect on hGH: other amino acids, literature
# [2] = subcutaneous injection of 0.06 IU, GH deficient subjects
Molecule,effect on hGH [1],also measured
NCCCC[C@H](N)C(=O)O [lysine],marked increases in hGH,–
N=C(N)NCCC[C@H](N)C(=O)O [arginine],–,"elevation of serum hGH levels ([1]; 30 g, males): 8.6 fold; increase of hGH levels ([1]; intravenous infusion of 183 mg/kg body weight, females): > 20 fold"
HGH: human growth hormone given by subcutaneous injection to GH deficient subjects,–,mean levels of GH reached [2]: 0.4 ng/mL
NCCC[C@H](N)C(=O)O [ornithine],marked increases in hGH,–
N[C@@H](Cc1c[nH]cn1)C(=O)O [histidine],marked increases in hGH,–
N[C@@H](Cc1ccccc1)C(=O)O [phenylalanine],marked increases in hGH,–
CSCC[C@H](N)C(=O)O [methionine],marked increases in hGH,–
